Laboratory results reported in BindingDB's records for doi:10.1016/j.bmcl.2003.12.089 (Ligand Pharmaceuticals, 2004).
pKi: −log10 of the molar value.

What was measured:
[1] = molecular target: Retinoic acid receptor gamma (Homo sapiens) (UniProt P13631); experiment: Binding affinity against retinoic acid receptor gamma by [3H]ATRA displacement.
[2] = molecular target: Retinoic acid receptor beta (Homo sapiens) (UniProt P10826); experiment: Binding affinity against retinoic acid receptor beta by [3H]ATRA displacement.
Chain of Retinoic acid receptor beta (Homo sapiens) (P10826 whole entry, looked up): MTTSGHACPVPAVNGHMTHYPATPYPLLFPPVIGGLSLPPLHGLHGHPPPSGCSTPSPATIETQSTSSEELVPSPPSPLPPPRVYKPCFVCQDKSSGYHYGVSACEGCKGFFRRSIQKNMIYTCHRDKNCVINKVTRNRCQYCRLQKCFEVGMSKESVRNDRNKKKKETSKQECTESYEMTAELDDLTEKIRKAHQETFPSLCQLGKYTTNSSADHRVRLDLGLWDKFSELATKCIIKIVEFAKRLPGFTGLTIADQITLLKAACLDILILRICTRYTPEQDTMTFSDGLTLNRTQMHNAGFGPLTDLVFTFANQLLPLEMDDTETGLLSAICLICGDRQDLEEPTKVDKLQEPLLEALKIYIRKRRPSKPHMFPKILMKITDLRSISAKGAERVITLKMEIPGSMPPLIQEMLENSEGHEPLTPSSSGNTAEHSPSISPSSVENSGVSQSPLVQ

Chain of Retinoic acid receptor gamma (Homo sapiens) (P13631 whole entry, looked up): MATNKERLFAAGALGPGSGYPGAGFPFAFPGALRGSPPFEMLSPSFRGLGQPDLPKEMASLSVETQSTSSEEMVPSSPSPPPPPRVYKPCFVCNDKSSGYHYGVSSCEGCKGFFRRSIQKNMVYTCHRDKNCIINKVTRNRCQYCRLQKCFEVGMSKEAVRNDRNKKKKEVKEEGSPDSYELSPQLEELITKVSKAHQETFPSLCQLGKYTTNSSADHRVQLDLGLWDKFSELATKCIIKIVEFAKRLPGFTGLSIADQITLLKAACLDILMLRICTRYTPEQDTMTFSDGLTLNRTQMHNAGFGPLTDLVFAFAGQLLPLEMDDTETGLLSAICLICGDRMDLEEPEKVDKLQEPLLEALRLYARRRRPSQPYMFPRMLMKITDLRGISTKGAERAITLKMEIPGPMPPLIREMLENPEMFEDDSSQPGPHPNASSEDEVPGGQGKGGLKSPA

| pKi [1] | pKi [2] | SMILES |
| --- | --- | --- |
| < 6.00 | < 6.00 | C/C(=C/C=C/C(C)=C/C(=O)O)c1cc(C(C)(C)C)cc(C(C)(C)C)c1OCC(F)F [7-[3,5-Di-tert-butyl-2-(2,2-difluoro-ethoxy)-phenyl]-3-methyl-octa-2,4,6-trienoic acid] |
| 5.00 | 5.23 | CCOc1c(-c2cccc3sc(/C(C)=C/C(=O)O)cc23)cc(C(C)C)cc1C(C)C [(E)-3-[4-(2-Ethoxy-3,5-diisopropyl-phenyl)-benzo[b]thiophen-2-yl]-but-2-enoic acid] |
| < 5.00 | < 5.00 | CCCCCCCOc1c(-c2cccc3sc(/C(C)=C/C(=O)O)cc23)cc(C(C)(C)C)cc1C(C)(C)C [(E)-3-[4-(3,5-Di-tert-butyl-2-heptyloxy-phenyl)-benzo[b]thiophen-2-yl]-but-2-enoic acid] |
| < 5.00 | < 5.00 | C/C(=C\C(=O)O)c1cc2c(-c3cc(C(C)(C)C)cc(C(C)(C)C)c3C)cccc2s1 [(E)-3-[4-(3,5-Di-tert-butyl-2-methyl-phenyl)-benzo[b]thiophen-2-yl]-but-2-enoic acid] |
| < 5.00 | < 5.00 | CCCOc1c(-c2cccc3sc(/C(C)=C/C(=O)O)cc23)cc(C(C)C)cc1C(C)C [(E)-3-[4-(3,5-Diisopropyl-2-propoxy-phenyl)-benzo[b]thiophen-2-yl]-but-2-enoic acid] |
| < 5.00 |  | CCOc1c(-c2cccc3cc(/C(C)=C/C(=O)O)sc23)cc(C(C)C)cc1C(C)C [(E)-3-[7-(2-Ethoxy-3,5-diisopropyl-phenyl)-benzo[b]thiophen-2-yl]-but-2-enoic acid] |
| < 5.00 | < 5.00 | CCOc1c(-c2cccc3cc(/C(C)=C/C(=O)O)oc23)cc(C(C)C)cc1C(C)C [(E)-3-[7-(2-Ethoxy-3,5-diisopropyl-phenyl)-benzofuran-2-yl]-but-2-enoic acid] |
| < 5.00 | 5.04 | CCCOc1c(-c2cccc3cc(/C(C)=C/C(=O)O)oc23)cc(C(C)C)cc1C(C)C [(E)-3-[7-(3,5-Diisopropyl-2-propoxy-phenyl)-benzofuran-2-yl]-but-2-enoic acid] |
| < 5.00 | < 5.00 | C/C(=C\C(=O)O)c1cc2c(-c3cc(C(C)(C)C)cc(C(C)(C)C)c3OCC(F)(F)F)cccc2s1 [(E)-3-{4-[3,5-Di-tert-butyl-2-(2,2,2-trifluoro-ethoxy)-phenyl]-benzo[b]thiophen-2-yl}-but-2-enoic acid] |
| < 5.00 | < 5.00 | C/C(=C\C(=O)O)c1cc2c(-c3cc(C(C)(C)C)cc(C(C)(C)C)c3OCC(F)F)cccc2s1 [(E)-3-{4-[3,5-Di-tert-butyl-2-(2,2-difluoro-ethoxy)-phenyl]-benzo[b]thiophen-2-yl}-but-2-enoic acid] |
| < 5.00 | < 5.00 | C/C(=C\C(=O)O)c1cc2c(-c3cc(C(C)(C)C)cc(C(C)(C)C)c3OCCC(F)F)cccc2s1 [(E)-3-{4-[3,5-Di-tert-butyl-2-(3,3-difluoro-propoxy)-phenyl]-benzo[b]thiophen-2-yl}-but-2-enoic acid] |
| < 5.00 | < 5.00 | C/C(=C\C(=O)O)c1cc2c(-c3cc(C(C)(C)C)cc(C(C)(C)C)c3OCCCF)cccc2s1 [(E)-3-{4-[3,5-Di-tert-butyl-2-(3-fluoro-propoxy)-phenyl]-benzo[b]thiophen-2-yl}-but-2-enoic acid] |
| < 5.00 | < 5.00 | C/C(=C\C(=O)O)c1cc2cccc(-c3cc(C(C)C)cc(C(C)C)c3OCC(F)F)c2o1 [(E)-3-{7-[2-(2,2-Difluoro-ethoxy)-3,5-diisopropyl-phenyl]-benzofuran-2-yl}-but-2-enoic acid] |
| < 5.00 | < 5.00 | C/C(=C\C(=O)O)c1cc2cccc(-c3cc(C(C)C)cc(C(C)C)c3OCCCF)c2o1 [(E)-3-{7-[2-(3-Fluoro-propoxy)-3,5-diisopropyl-phenyl]-benzofuran-2-yl}-but-2-enoic acid] |
| < 5.00 | 5.57 | C/C(=C\C(=O)O)c1cc2cccc(-c3cc(C(C)C)cc(C(C)C)c3OCC(F)(F)F)c2o1 [(E)-3-{7-[3,5-Diisopropyl-2-(2,2,2-trifluoro-ethoxy)-phenyl]-benzofuran-2-yl}-but-2-enoic acid] |
| < 5.00 | < 5.00 | C/C(=C(/F)C(=O)O)c1cc2cccc(-c3cc(C(C)C)cc(C(C)C)c3OCC(F)F)c2o1 [(Z)-3-{7-[2-(2,2-Difluoro-ethoxy)-3,5-diisopropyl-phenyl]-benzofuran-2-yl}-2-fluoro-but-2-enoic acid] |

| SMILES | pKi [1] | pKi [2] |
| --- | --- | --- |
| CCCCOc1c(-c2cccc3cc(/C(C)=C(\F)C(=O)O)oc23)cc(C(C)C)cc1C(C)C [(Z)-3-[7-(2-Butoxy-3,5-diisopropyl-phenyl)-benzofuran-2-yl]-2-fluoro-but-2-enoic acid] | < 5.00 | < 5.00 |
